Reference: ChEMBL document CHEMBL3351506, “Synthesis and antiproliferative activity of conjugates of adenosine with muramyl dipeptide and nor-muramyl dipeptide derivatives” (Bioorg Med Chem Lett, 2014)

Assays:
[1] = system: L1210; experiment: Cytotoxicity against mouse L1210 cells assessed as inhibition of cell viability after 72 hrs by MTT assay; format: functional, cell-based; conditions: L1210, 72 h
[2] = system: PBMC; experiment: Cytotoxicity against human PBMC assessed as inhibition of cell viability after 72 hrs by MTT assay; format: cell-based
[3] = system: L1210; experiment: Antitumor activity against mouse L1210 cells assessed as inhibition of [3H]thymidine incorporation after 72 hrs; format: functional, cell-based
[4] = system: L1210; experiment: Cytotoxicity against mouse L1210 cells assessed as inhibition of cell viability after 72 hrs by MTT assay relative to control; format: functional; set-up: concentration or dose not given beside the values; conditions: values are per cent of control
[5] = system: L1210; experiment: Antitumor activity against mouse L1210 cells assessed as inhibition of [3H]thymidine incorporation at 0.5 mg/ml after 72 hrs relative to control; format: functional; conditions: values are per cent of control
[6] = system: L1210; experiment: Ratio of IC50 for mouse L1210 cells by MTT assay to EC50 for mouse L1210 cells by [3H]thymidine incorporation assay; format: functional
[7] = Cytotoxicity against human PBMC assessed as inhibition of cell viability at 0.5 mg/ml after 72 hrs by MTT assay; format: cell-based; conditions: PBMC (peripheral blood mononuclear cells), read-out: INH
[8] = system: L1210; experiment: Antitumor activity against mouse L1210 cells assessed as inhibition of [3H]thymidine incorporation at 0.215 mg/ml after 72 hrs relative to control; format: functional
[9] = Cytotoxicity against human PBMC assessed as inhibition of cell viability at 0.21 mg/ml after 72 hrs by MTT assay; format: cell-based; conditions: PBMC (peripheral blood mononuclear cells), read-out: INH
[10] = system: L1210; experiment: Cytotoxicity against mouse L1210 cells assessed as inhibition of cell viability at 0.5 mg/ml after 72 hrs by MTT assay; format: functional; conditions: L1210, 72 h

Row | SMILES | IC50 [1] [µM] | IC50 [2] [µM] | EC50 [3] [µM] | viability, % of control [4] [%] | growth, % of control at 500 µg/mL [5] [%] | Ratio IC50/EC50 [6] | cytotoxicity at 72 h, 0.5 mg/ml [7] [%] | inhibition at 215 µg/mL [8] [%] | cytotoxicity at 72 h, 0.21 mg/ml [9] [%] | inhibition at 500 µg/mL [10] [%]
1 | CC(=O)N[C@H]1[C@@H](OCc2ccccc2)O[C@H](CO)[C@@H](O)[C@@H]1OCC(=O)N[C@H](C)C(=O)N[C@H](CCC(=O)O)C(N)=O | 287 | 335 | 363 | 19.97 | 0.55 | 36.6 |  |  |  | 
2 | CC(=O)N[C@H]1[C@@H](OCc2ccccc2)O[C@H](CO)[C@@H](O)[C@@H]1OCC(=O)N[C@H](CO)C(=O)N[C@H](CCC(=O)O)C(N)=O | 314 | 858 | 290 | 14.68 | 0.76 | 19.3 | < 50 |  |  | 
3 | CC(=O)N[C@H]1[C@@H](OCc2ccccc2)O[C@H](CO)[C@@H](O)[C@@H]1OCC(=O)N[C@@H](C(=O)N[C@H](CCC(=O)O)C(N)=O)C(C)C | 170 | 361 | 193 | 26.6 |  | 23.7 | < 50 | 1.12 | < 50 | 
4 | CC(=O)N[C@H]1[C@@H](OCc2ccccc2)O[C@H](CO)[C@@H](O)[C@@H]1O[C@H](C)C(=O)N[C@H](C)C(=O)N[C@H](CCC(=O)NCCNc1ncnc2c1ncn2[C@@H]1O[C@H](CO)[C@@H](O)[C@H]1O)C(N)=O | 287 | 389 | 517 | 35.91 | 9.75 | 3.7 |  |  |  | 
5 | CC[C@@H](NC(=O)[C@@H](C)O[C@H]1[C@H](O)[C@@H](CO)O[C@H](OCc2ccccc2)[C@@H]1NC(C)=O)C(=O)N[C@H](CCC(=O)NCCNc1ncnc2c1ncn2[C@@H]1O[C@H](CO)[C@@H](O)[C@H]1O)C(N)=O | 220 | 439 | 446 | 29.01 | 0.86 | 33.8 |  |  |  | 
6 | CC(=O)N[C@H]1[C@@H](OCc2ccccc2)O[C@H](CO)[C@@H](O)[C@@H]1O[C@H](C)C(=O)N1CCC[C@@H]1C(=O)N[C@H](CCC(=O)NCCNc1ncnc2c1ncn2[C@@H]1O[C@H](CO)[C@@H](O)[C@H]1O)C(N)=O | 311 | 271 | 507 | 43.1 | 4.65 | 9.3 |  |  |  | 
7 | CC(=O)N[C@H]1[C@@H](OCc2ccccc2)O[C@H](CO)[C@@H](O)[C@@H]1O[C@H](C)C(=O)N[C@H](CO)C(=O)N[C@H](CCC(=O)NCCNc1ncnc2c1ncn2[C@@H]1O[C@H](CO)[C@@H](O)[C@H]1O)C(N)=O | 218 | 324 | 497 | 28.09 | 5.14 | 5.5 |  |  |  | 
8 | CC(=O)N[C@H]1[C@@H](OCc2ccccc2)O[C@H](CO)[C@@H](O)[C@@H]1O[C@H](C)C(=O)N[C@@H](C(=O)N[C@H](CCC(=O)NCCNc1ncnc2c1ncn2[C@@H]1O[C@H](CO)[C@@H](O)[C@H]1O)C(N)=O)C(C)C | 161 | 234 | 458 | -0.87 | 2.9 | -0.3 |  |  |  | 
9 | CC(=O)N[C@H]1[C@@H](OCc2ccccc2)O[C@H](CO)[C@@H](O)[C@@H]1OCC(=O)N[C@H](C)C(=O)N[C@H](CCC(=O)NCCNc1ncnc2c1ncn2[C@@H]1O[C@H](CO)[C@@H](O)[C@H]1O)C(N)=O | 270 | 298 | 500 | 29.84 | 0.67 | 44.7 |  |  |  | 
10 | CC[C@@H](NC(=O)CO[C@H]1[C@H](O)[C@@H](CO)O[C@H](OCc2ccccc2)[C@@H]1NC(C)=O)C(=O)N[C@H](CCC(=O)NCCNc1ncnc2c1ncn2[C@@H]1O[C@H](CO)[C@@H](O)[C@H]1O)C(N)=O | 571 | 466 | 506 | 53.6 | 2.73 | 19.6 |  |  |  | < 50
11 | CC(=O)N[C@H]1[C@@H](OCc2ccccc2)O[C@H](CO)[C@@H](O)[C@@H]1OCC(=O)N1CCC[C@@H]1C(=O)N[C@H](CCC(=O)NCCNc1ncnc2c1ncn2[C@@H]1O[C@H](CO)[C@@H](O)[C@H]1O)C(N)=O | 562 | 280 | 511 | 52.99 | 6.1 | 8.7 |  |  |  | < 50
12 | CC(=O)N[C@H]1[C@@H](OCc2ccccc2)O[C@H](CO)[C@@H](O)[C@@H]1OCC(=O)N[C@H](CO)C(=O)N[C@H](CCC(=O)NCCNc1ncnc2c1ncn2[C@@H]1O[C@H](CO)[C@@H](O)[C@H]1O)C(N)=O | 570 | 479 | 541 | 64.95 | 31.6 | 2.1 |  |  |  | 
13 | CC(=O)N[C@H]1[C@@H](OCc2ccccc2)O[C@H](CO)[C@@H](O)[C@@H]1OCC(=O)N[C@@H](C(=O)N[C@H](CCC(=O)NCCNc1ncnc2c1ncn2[C@@H]1O[C@H](CO)[C@@H](O)[C@H]1O)C(N)=O)C(C)C | 285 | 561 | 512 | 31.65 | 12.3 | 2.6 | < 50 |  |  | 
14 | CC(=O)N[C@H]1[C@@H](OCc2ccccc2)O[C@H](CO)[C@@H](O)[C@@H]1O[C@H](C)C(=O)N[C@H](C(=O)N[C@H](CCC(=O)NCCNc1ncnc2c1ncn2[C@@H]1O[C@H](CO)[C@@H](O)[C@H]1O)C(N)=O)C(C)C | 555 | 555 | 292 | 59.37 | 31.1 | 1.9 | < 50 |  |  | < 50
15 | CC(=O)N[C@H]1[C@@H](OCc2ccccc2)O[C@H](CO)[C@@H](O)[C@@H]1OCC(=O)N[C@@H](C)C(=O)N[C@H](CCC(=O)NCCCCCC(=O)Nc1ncnc2c1ncn2[C@@H]1O[C@H](CO)[C@@H](O)[C@H]1O)C(N)=O | 537 | 537 | 537 | 70.64 | 178 | 0.4 | < 50 |  |  | 
16 | CC(=O)N[C@H]1[C@@H](OCc2ccccc2)O[C@H](CO)[C@@H](O)[C@@H]1O[C@H](C)C(=O)N[C@@H](C)C(=O)N[C@H](CCC(=O)NCCCCCC(=O)Nc1ncnc2c1ncn2[C@@H]1O[C@H](CO)[C@@H](O)[C@H]1O)C(N)=O | 529 | 529 | 529 | 65.58 | 192 | 0.3 | < 50 |  |  | 
17 | CC(=O)N[C@@H]1[C@@H](O[C@H](C)C(=O)N[C@H](C)C(=O)N[C@H](CCC(=O)O)C(N)=O)[C@H](O)[C@@H](CO)O[C@@H]1O | 1010 | 1010 | 1010 | 64.93 | 146 | 0.4 | < 50 |  |  | 
18 | Nc1ncnc2c1ncn2[C@@H]1O[C@H](CO)[C@@H](O)[C@H]1O [ADENOSINE] | 991 | 1870 | 1870 | 32.79 | 132 | 0.2 | < 50 |  |  | 
